From patent US20230293475A1, “METHODS OF PROVIDING SO[…] TO SUBJECTS WITH IMPAIRED RENAL FUNCTION” (Axsome Malta Ltd., priority 2020, published 2023)

Assay: Phase 1 study, removal of solriamfetol by 4-hour hemodialysis in ESRD
Assay type: in vivo, human
Description: Groups 1-4 received one dose of solriamfetol HCl (89.3 mg; equivalent to 75-mg solriamfetol) on day 1; Group 5 received one dose equivalent to 75-mg dose on day 1 followed by 4-hour hemodialysis (designated Group 5.2), and one dose equivalent to 75-mg solriamfetol on day 8 without hemodialysis (designated Group 5.1). All doses were administered on an empty stomach following an overnight fast except for participants in Group 5, who received a standardized snack on day 7 and breakfast early on day 8 before starting an 8-hour fast. Participants remained fasting for 4 hours after administration, with water allowed except for 1 hour before and after dosing.
Urine samples were collected predose and for the time intervals of 0-4, 4-8, 8-12, 12-24, and 24-48 hours in Groups 1-3, with additional collection for the 48-72 hour time interval in Groups 4 and 5. During the hemodialysis period on day 1 for Group 5, dialysate samples and pre- and post-dialyzer paired blood samples were collected at pre-dialysis (2 hours), and at 3, 4, 5, and 6 hours following dosing. […]
Bioanalytical analyses were performed by a central laboratory (KCAS, LLC, Shawnee, Kansas) using validated proprietary methods that included extraction/derivatization and liquid chromatography-tandem mass spectrometry (LC-MS/MS). […] Assay performance was monitored by spiking blank interference free human plasma with positive controls and internal standards to generate standard curve and quality control samples. […] Quantification was based on setting a calibration graph using the internal standard method. […]
The following plasma PK parameters were evaluated using non-compartmental analysis in Phoenix® WinNonlin® Version 6.3: Cmax; time to reach Cmax following drug administration (tmax); t½; area under the plasma concentration-time curve from time zero to time of last quantifiable concentration (AUCt); AUC from time zero to infinity (AUC∞); apparent total clearance of the drug from plasma after oral administration (CL/F); and apparent volume of distribution (Vd/F). […]

Compound: NC(=O)OC[C@H](N)Cc1ccccc1 [solriamfetol, [R]-2-amino-3-phenylpropylcarbamate]
- hemodialysis clearance, lower than renal clearance in normal renal function: approximately 30%
- clearance (both sexes, human, dialysate, oral, 75 mg, day 1): 207 mL/min
- cumulative fraction of the 75-mg dose removed over the 4-hour hemodialysis period, mean (day 1): 20.6%
